In US12325696B2, “Indazole derivative, preparation method therefor, and pharmaceutical application thereof” (JIANGSU HENGRUI MEDICINE CO., LTD., priority 2019, dated 2025):

How the values were obtained:
[1] = system: MCF7 D538G; experiment: Inhibition of proliferation of MCF7 cell expressing ERα D538G mutant; type: cell-based; details: Homo sapiens, 144 hours; for Emax: read-out: Maximum inhibition
Procedure, shortened: (§1)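 MCF7 cells stably expressing lentiviral ERα Y537S or D538G mutants, seeded 3,000 cells/well, then exposed in 2% FBS MEM to nine 4-fold dilutions from 100 nM for 144 h at 37° C. Viability read by CellTiter-Glo luminescence; IC50 fitted from concentration-response.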

[2] = biological target: estrogen receptor ERα wild-type (Homo sapiens (Human), UniProt P03372); experiment: Covalent modification of ERα wild-type LBD by high-resolution mass spectrometry; type: binding; details: after 24 hours; 2 μM protein, 10 μM compound, 4° C.
Chain of estrogen receptor ERα wild-type (P03372 296-554): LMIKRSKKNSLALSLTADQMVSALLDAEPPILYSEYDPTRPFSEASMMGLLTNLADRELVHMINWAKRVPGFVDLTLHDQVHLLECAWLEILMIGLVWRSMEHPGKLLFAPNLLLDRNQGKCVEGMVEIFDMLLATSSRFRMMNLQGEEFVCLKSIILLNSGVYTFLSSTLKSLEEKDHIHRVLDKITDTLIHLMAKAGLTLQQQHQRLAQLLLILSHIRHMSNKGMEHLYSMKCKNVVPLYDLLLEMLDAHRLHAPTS
Experimental: (§2) The ligand binding domain (LBD, aa296-554) of estrogen receptor ERα wild-type and ERα Y537S mutant-type was expressed in E. coli and purified. 2 μM ERα wild-type or ERα Y537S mutant-type protein and 10 μM compound were added to a buffer solution containing 50 mM Tris-HCl, pH7.5, 150 mM NaCl, 1 mM TCEP and 5% glycerol and mixed well. The solution was incubated at 4° C. for 24 hours, followed by high-resolution mass spectrometry (Agilent Technologies, Agilent Q-tof 6530) assay. Alternatively, 1 μM ERα wild-type or ERα Y537S mutant-type protein and 3 μM compound were added to a buffer solution containing 50 mM Tris-HCl, pH7.5, 150 mM NaCl, 1 mM TCEP and 5% glycerol and mixed well. The solution was incubated at 37° C. for 15 minutes, followed by high-resolution mass spectrometry assay. In the mass spectrometry assay results, the peak whose molecular weight is the sum of the molecular weight of the protein and compound is the product of covalent modification. The percentage of covalent modification is obtained by calculating the ratio of […] to total protein.

[3] = system: estrogen receptor reporter gene; experiment: Inhibition of estrogen receptor reporter gene activity (ERE-luc luciferase) in MCF7/ERE-luc cells; type: cell-based; details: Homo sapiens, 0.1 nM β-estradiol, 20 hours, read-out: IC50 of inhibitory activity on the activity of the estrogen receptor reporter gene
Procedure, shortened: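 MCF7 cells stably carrying ERE-driven luciferase, in charcoal-stripped serum medium, were stimulated with 0.1 nM β-estradiol plus compound (nine 10-fold dilutions from 10 μM) for 20 h at 37° C. ONE-Glo luminescence was read, and IC50 was fitted from signal versus log concentration.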

[4] = system: MCF7 ERαY537S; experiment: Inhibition of proliferation of MCF7 cell expressing ERα Y537S mutant; type: cell-based; details: Homo sapiens, 144 hours; for Emax: read-out: Maximum inhibition
Procedure, shortened: as §1

[5] = biological target: estrogen receptor ERα Y537S mutant-type (Homo sapiens (Human), UniProt P03372, Y537S); experiment: Covalent modification of ERα Y537S mutant-type LBD by high-resolution mass spectrometry; type: binding; details: after 24 hours; 2 μM protein, 10 μM compound, 4° C.
Chain of estrogen receptor ERα Y537S mutant-type (P03372 296-554 Y537S): as the sequence (P03372 296-554) above, with Y242S counted along it
Experimental: as §2

Compound | IC50 [1] | Emax [1] | Covalent modification effect on the estrogen receptor ERα wild-type [2] | IC50 [3] | IC50 [4] | Emax [4] | Covalent modification effect on the estrogen receptor ERα Y537S mutant-type [5]
O=C(/C=C/CNC1(COc2ccc(/C(=C(/CC(F)(F)F)c3ccccc3)c3ccc4[nH]nc(F)c4c3)cn2)CC1)N1CCOCC1 [Example 1, (E)-1-Morpholino-4-((1-(((5-((Z)-4,4,4-trifluoro-1-(3-fluoro-1H-indazol-5-yl)-2-phenylbut-1-en-1-yl)pyridin-2-yl)oxy)methyl)cyclopropyl)amino)but-2-en-1-one] | 2 nM | 100% | 97% | 1 nM | 3 nM | 100% | 97%
O=C(/C=C/CN1CCC[C@@H](Oc2ccc(/C(=C(/CC(F)(F)F)c3ccccc3)c3ccc4[nH]nc(F)c4c3)cn2)C1)N1CCCC1 [Example 15, (E)-1-(Pyrrolidin-1-yl)-4-((R)-3-((5-((Z)-4,4,4-trifluoro-1-(3-fluoro-1H-indazol-5-yl)-2-phenylbut-1-en-1-yl)pyridin-2-yl)oxy)piperidin-1-yl)but-2-en-1-one] | 1 nM | 105% | 95% | 3 nM | 2 nM | 102% | 96%
CN(C)C(=O)/C=C/CNC1(COc2ccc(/C(=C(/CC(F)(F)F)c3ccccc3)c3ccc4[nH]nc(F)c4c3)cn2)CC1 [Example 39, (E)-N,N-Dimethyl-4-((1-(((5-((Z)-4,4,4-trifluoro-1-(3-fluoro-1H-indazol-5-yl)-2-phenylbut-1-en-1-yl)pyridin-2-yl)oxy)methyl)cyclopropyl)amino)but-2-enamide] | 0.6 nM | 105% | 97% | 2 nM | 1 nM | 112% | 98%
O=C(/C=C/CNC1(COc2ccc(/C(=C(/CC(F)(F)F)c3ccccc3)c3ccc4[nH]nc(F)c4c3)cn2)CC1)N1CC[C@H](O)C1 [Example 41, (E)-1-((S)-3-Hydroxypyrrolidin-1-yl)-4-((1-(((5-((Z)-4,4,4-trifluoro-1-(3-fluoro-1H-indazol-5-yl)-2-phenylbut-1-en-1-yl)pyridin-2-yl)oxy)methyl)cyclopropyl)amino)but-2-en-1-one] | 0.2 nM | 106% | 93% | 3 nM | 0.6 nM | 111% | 95%
O=C(/C=C/CNC1(COc2ccc(/C(=C(/CC(F)(F)F)c3ccccc3)c3ccc4[nH]nc(F)c4c3)cn2)CC1)N1CCO[C@@H](CO)C1 [Example 42, (E)-1-((R)-2-(Hydroxymethyl)morpholino)-4-((1-(((5-((Z)-4,4,4-trifluoro-1-(3-fluoro-1H-indazol-5-yl)-2-phenylbut-1-en-1-yl)pyridin-2-yl)oxy)methyl)cyclopropyl)amino)but-2-en-1-one] | 0.1 nM | 105% | – | 0.7 nM | 0.2 nM | 107% | 97%
O=C(/C=C/CNC1(COc2ccc(/C(=C(/CC(F)(F)F)c3ccccc3)c3ccc4[nH]nc(F)c4c3)cn2)CC1)N1CC(O)C1 [Example 40, (E)-1-(3-Hydroxyazetidin-1-yl)-4-((1-(((5-((Z)-4,4,4-trifluoro-1-(3-fluoro-1H-indazol-5-yl)-2-phenylbut-1-en-1-yl)pyridin-2-yl)oxy)methyl)cyclopropyl)amino)but-2-en-1-one] | 0.2 nM | 106% | 96% | 2 nM | 0.5 nM | 112% | 98%
CN(C)C(=O)/C=C/CN1CCC[C@@H](Oc2ccc(/C(=C(/CC(F)(F)F)c3ccccc3)c3ccc4[nH]nc(F)c4c3)cn2)C1 [Example 14, (E)-N,N-Dimethyl-4-((R)-3-((5-((Z)-4,4,4-trifluoro-1-(3-fluoro-1H-indazol-5-yl)-2-phenylbut-1-en-1-yl)pyridin-2-yl)oxy)piperidin-1-yl)but-2-enamide] | 3 nM | 107% | 93% | 2 nM | 6 nM | 97% | 94%
